Numbered stars: 1 amine (or outer) side, 2 acyl side, 3 side chain; on linkers, the order of the positions; unused ones are H or OH. Bridge positions count the residues as written; N and C are the ends. Square brackets hold non-standard residues; d marks the D form. Peptide text beside a SMILES is read from it. * marks the point of attachment. hPhe(3-Cl-4-CF3) = N[C@@H](CCc1ccc(C(F)(F)F)c(Cl)c1)C(=O)O; hPhe(3-F,4-CF3) = N[C@@H](CCc1ccc(C(F)(F)F)c(F)c1)C(=O)O; X27 = CN([C@@H](Cc1ccc(C(F)(F)F)nc1)C(=O)[*:2])[*:1]; NMePhe(4-Me) = CN[C@@H](Cc1ccc(C)cc1)C(=O)O; NMedβ3hAla = C[C@H](CC(=O)[*:2])N(C)[*:1]; NMeGly(cPent) = CN[C@H](C(=O)O)C1CCCC1; Phe(3-I) = N[C@@H](Cc1cccc(I)c1)C(=O)O; NMeCha = CN[C@@H](CC1CCCCC1)C(=O)O; NMeGly(cPr) = CN[C@H](C(=O)O)C1CC1; NMehLeu = CN[C@@H](CCC(C)C)C(=O)O; NMeChg = CN[C@H](C(=O)O)C1CCCCC1; NMeI = CC[C@H](C)[C@H](NC)C(=O)O; hPhe = N[C@@H](CCc1ccccc1)C(=O)O; NMeD = CN[C@@H](CC(=O)O)C(=O)O; NMeL = CN[C@@H](CC(C)C)C(=O)O; NMeV = CN[C@H](C(=O)O)C(C)C; d(β3hA) = C[C@@H](N)CC(=O)O; NMeS = CN[C@@H](CO)C(=O)O; Morpholide = C1CN(*)CCO1; NMeA = CN[C@@H](C)C(=O)O; NMeAib = CNC(C)(C)C(=O)O; Piperidide = C1CCN(*)CC1; Ac5c = NC1(C(=O)O)CCCC1; Aze = O=C(O)[C@@H]1CCN1; Isopentyl = CC(C)CC*; Sar = CNCC(=O)O; Propyl = CCC*
Each compound was assayed on Human pancreatic cancer cell line AsPC-1 (G12D mutation Kras) (assay: AsPC-1 cell growth inhibition (AsPC-1 CGI)). Details: read-out: AsPC-1 cell growth inhibition, 50% growth inhibitory concentration (IC50 value); 96 hours, CellTiter-Glo, values classified in ranges.
Assay type: cell-based
Description: Test compounds were serially dilated with dimethyl sulfoxide, and 200 nL was then dispensed to a U-bottom 96-well plate using Labcyte Echo. […] The cell suspension was dispensed to a. plate containing a test compound at 100 μL per well and incubated at 37° C. in a 5% carbon dioxide gas incubator. 96 hours later, 80 μL of CellTiter-Glo (Promega) was added to each well and fluorescence was measured.

Structure (SMILES) | IC50
CC[C@H](C)[C@@H]1NC(=O)[C@H](CC(C)C)N(C)C(=O)C[C@@H](C(=O)N(C)C)N(C)C(=O)[C@H]([C@@H](C)CC)N(C)C(=O)[C@H](C(C)C)NC(=O)[C@H](C)N(C)C(=O)[C@H](CCc2ccc(C(F)(F)F)c(Cl)c2)NC(=O)CN(C)C(=O)[C@H](Cc2ccc(C)cc2)N(C)C(=O)[C@@H]2CCN2C(=O)[C@H](C)N(C)C1=O [Compound 4] ([NMeL]I[NMeA][Aze][NMePhe(4-Me)][Sar][hPhe(3-Cl-4-CF3)][NMeA]V[NMeI][NMeD]-NMe2; lactam N-11) | > 0.5 µM
CC[C@H](C)[C@@H]1NC(=O)[C@H](CC(C)C)N(C)C(=O)C[C@@H](C(=O)N2CCCCC2)N(C)C(=O)[C@H](C2CCCCC2)N(C)C(=O)C2(CCCC2)NC(=O)[C@H](Cc2ccc(C(F)(F)F)nc2)N(C)C(=O)[C@H](CCc2ccc(C(F)(F)F)c(Cl)c2)NC(=O)CN(C)C(=O)[C@H](CC2CCCCC2)N(C)C(=O)[C@@H]2CCN2C(=O)CN(C)C1=O [Compound 6] ([NMeL]I[Sar][Aze][NMeCha][Sar][hPhe(3-Cl-4-CF3)][X27][Ac5c][NMeChg][NMeD]-Piperidide; lactam N-11) | > 0.5 µM
COC[C@@H]1NC(=O)[C@H](CC(C)C)N(C)C(=O)C[C@@H](C(=O)N2CCCCC2)N(C)C(=O)[C@H](C(C)C)N(C)C(=O)C2(CCCC2)NC(=O)[C@@H]2CCCN2C(=O)[C@H](CCc2ccc(C(F)(F)F)c(Cl)c2)NC(=O)CN(C)C(=O)[C@H](CC2CCCCC2)N(C)C(=O)[C@@H]2CCN2C(=O)[C@H](C)N(C)C1=O [Compound 7] ([NMeL]S(Me)[NMeA][Aze][NMeCha][Sar][hPhe(3-Cl-4-CF3)]P[Ac5c][NMeV][NMeD]-Piperidide; lactam N-11) | > 0.5 µM
CCCOC[C@H]1C(=O)N(C)CC(=O)N[C@@H](CCc2ccc(C(F)(F)F)c(F)c2)C(=O)N2CCC[C@H]2C(=O)NC2(CCCC2)C(=O)N(C)[C@@H](C2CCCC2)C(=O)N(C)[C@H](C(=O)N2CCOCC2)CC(=O)N(C)[C@@H](CC(C)C)C(=O)N[C@@H]([C@@H](C)CC)C(=O)N(C)[C@@H](C)C(=O)N2CC[C@H]2C(=O)N1C [Compound 9] ([NMeL]I[NMeA][Aze][NMeS](Propyl)[Sar][hPhe(3-F,4-CF3)]P[Ac5c][NMeGly(cPent)][NMeD]-Morpholide; lactam N-11) | ≤ 0.02 µM
CC[C@H](C)[C@@H]1NC(=O)[C@H](CC(C)C)N(C)C(=O)C[C@@H](C(=O)N2CCCCC2)N(C)C(=O)[C@H](CC(C)C)NC(=O)C(C)(C)N(C)C(=O)[C@H](CCc2ccccc2)NC(=O)[C@H](Cc2cccc(I)c2)NC(=O)CN(C)C(=O)[C@H](Cc2ccc(C)cc2)N(C)C(=O)CN(C)C(=O)CN(C)C1=O [Compound 13] ([NMeL]I[Sar][Sar][NMePhe(4-Me)][Sar][Phe(3-I)][hPhe][NMeAib]L[NMeD]-Piperidide; lactam N-11) | > 0.5 µM
CC[C@H](C)[C@@H]1NC(=O)[C@H](CC(C)C)N(C)C(=O)C[C@@H](C)NC(=O)[C@H](C2CC2)N(C)C(=O)C2(CCCC2)NC(=O)[C@@H]2CCCN2C(=O)[C@H](CCc2ccc(C(F)(F)F)c(Cl)c2)NC(=O)CN(C)C(=O)[C@H](CC2CCCCC2)N(C)C(=O)CN(C)C(=O)CN(C)C1=O [Compound 14] (cyclo([Ac5c][NMeGly(cPr)][d(β3hA)][NMeL]I[Sar][Sar][NMeCha][Sar][hPhe(3-Cl-4-CF3)]P)) | > 0.5 µM
CC[C@H](C)[C@@H]1NC(=O)[C@H](CC(C)C)N(C)C(=O)C[C@@H](C)N(C)C(=O)[C@H](CCC(C)C)N(C)C(=O)C2(CCCC2)NC(=O)[C@@H]2CCCN2C(=O)[C@H](CCc2ccc(C(F)(F)F)c(Cl)c2)NC(=O)CN(C)C(=O)[C@H](CC2CCCCC2)N(C)C(=O)CN(C)C(=O)CN(C)C1=O [Compound 22] (cyclo([Ac5c][NMehLeu][NMedβ3hAla][NMeL]I[Sar][Sar][NMeCha][Sar][hPhe(3-Cl-4-CF3)]P)) | > 0.5 µM
CC[C@H](C)[C@@H]1NC(=O)[C@H](CC(C)C)N(C)C(=O)C[C@@H](C(=O)N(C)C)N(C)C(=O)[C@H](C2CCCC2)N(C)C(=O)[C@H](C(C)C)NC(=O)[C@@H](C)NC(=O)[C@H](CCc2ccc(C(F)(F)F)c(Cl)c2)NC(=O)CN(C)C(=O)[C@H](CC2CCCCC2)N(C)C(=O)[C@@H]2CCN2C(=O)[C@H](C)N(C)C1=O [Compound 24] ([NMeL]I[NMeA][Aze][NMeCha][Sar][hPhe(3-Cl-4-CF3)][dA]V[NMeGly(cPent)][NMeD]-NMe2; lactam N-11) | > 0.5 µM
CC[C@H](C)[C@@H]1NC(=O)[C@H](CC(C)C)N(C)C(=O)C[C@@H](C(=O)N(C)C)N(C)C(=O)[C@H]([C@@H](C)CC)N(C)C(=O)C2(CCCC2)NC(=O)[C@H](COCCC(C)C)N(C)C(=O)[C@H](CCc2ccc(C(F)(F)F)c(Cl)c2)NC(=O)CN(C)C(=O)[C@H](Cc2ccc(C)cc2)N(C)C(=O)[C@@H]2CCN2C(=O)[C@H](C)N(C)C1=O [Compound 27] ([NMeL]I[NMeA][Aze][NMePhe(4-Me)][Sar][hPhe(3-Cl-4-CF3)][NMeS](Isopentyl)[Ac5c][NMeI][NMeD]-NMe2; lactam N-11) | ≤ 0.02 µM

— US20240148821A1, “PHARMACEUTICAL USE OF CYCLIC PEPTIDE COMPOUND” (CHUGAI SEIYAKU KABUSHIKI KAISHA, priority 2021, published 2024)
